Publication PMC8850458, “The AUTOTAC chemical biology platform for targeted protein degradation via the autophagy-lysosome system” (Nature Communications, 2022)
Values joined by “and” are separate entries in the source; they are usually repeats but may differ in a detail not shown here. Equal entries are not always repeated.

What was measured:
tauP301L = tauP301L (Homo sapiens, UniProt P10636, P618L); assay: In vitro pulldown assay of biotinylated PBA; assay type: binding; settings: tauP301L stably expressed in SH-SY5Y cells
Procedure: A set of synthetic 12-mer peptides corresponding to the N-terminal sequences of the V-BiP (V[19]-[…]-biotin) and V-RGS4 (V^2-[…]-biotin) was C-terminally biotin-conjugated. Alternatively, biotinylated versions of YOK-1304, YT-8-8, YTK-1105, YOK-2204, and PBA were synthesized. To cross-link the above peptides with resin beads, biotin-conjugated peptides, and small molecule were mixed with high-capacity streptavidin agarose resin (Thermo Fisher Scientific) at a ratio of 0.5 mg of peptide per 1 mL of settled resin and incubated on a rotator at 4 °C overnight. After washing five times with PBS, the peptide/small molecule-bead conjugates were diluted with PBS at a 1:1 ratio. To prepare protein extracts, cells were collected by centrifugation and lysed by freezing and thawing at least 10 times in hypotonic buffer [10 mM KCl, 1.5 mM MgCl2, and 10 mM HEPES (pH 7.9)] with a protease inhibitor mix (Sigma). After centrifugation at 15,000 rpm 4 °C for 15 min, proteins were quantified using a BCA protein assay kit (Thermo Fisher Scientific). Total protein (200 μg) diluted in 300 μL of binding buffer [0.05% Tween-20, 10% glycerol, 0.2 M KCl, and 20 mM HEPES (pH 7.9)] were mixed with 50 μL of peptide/small molecule-bead resin and incubated at 4 °C for 2 h on a rotator. The protein-bound beads were collected by centrifugation at 2400 × g for 3 min and washed five times with binding buffer. […]

Ub^+ and p62^+ puncta = assay: ICC of Ub (FK2) and p62 puncta in HeLa cells; assay type: cell-based; settings: Fig. 4g; for FK2 (Ub) / p62 colocalization, cells counted per 50 cells (individual replicates): listed as PBA
Procedure: Fig. 4 Targeted autophagic delivery and degradation of misfolded protein cargoes using AUTOTACs with aggregate-binding warhead. a A model illustrating the mode of action of aggregate-targeting AUTOTAC. b Chemical structures of PBA-1105, PBA-1106, Anle138b-F105 and PBA-1105b. c In vitro p62 oligomerization assay in HEK293T cells incubated with the indicated compounds in (b). d WB in HEK293T cells treated with MG132 (1 μM, 24 h), HCQ (10 μM, 24 h), PBA-1105, YTK-1105, and PBA (1 μM, 24 h). e Identical to (d), but with Anle-F105. f ICC of HeLa cells treated with HCQ (10 μM, 24 h), MG132 (2 μM, 18 h) or both in the presence of PBA-1106, YOK-1106 or PBA (1 μM, 24 h). Scale bar, 10 μm. g Quantification of (f) (n = 3, 50 cells). h ICC of HeLa cells treated with Anle138b-F105 (1 μM, 24 h). Scale bar, 10 μm. i Quantification of (h) (n = 3, 50 cells). When indicated, n = 3 biologically independent experiments each counting 50 cells. Data are presented as mean values ± SD where relevant. P-values (from a two-sided unpaired t test): ***P < 7.66E−05. Source data are provided with this paper.
(§1) Cells were cultured on coverslips coated with poly-L-lysine (Sigma) to observe cellular localization of proteins. Using 4% paraformaldehyde in PBS (pH 7.4), the cells were fixed for 15 min at room temperature and washed three times for 5 min with PBS. After fixing, the cells were permeabilized with 0.5% Triton X-100 in PBS solution for 15 min and washed three times with PBS for 5 min. The cells were blocked containing 2% BSA in PBS solution for 1 h at room temperature. Subsequently, the cells were incubated with primary antibody diluted in 2% BSA/PBS solution overnight at 4 °C, followed by washing the cells three times for 10 min with PBS and incubated with Alexa Fluor-conjugated secondary antibody diluted in 2% BSA/PBS for 30 min at room temperature. Using a DAPI-containing mounting medium (Vector Laboratories), the coverslips were mounted on glass slides. Confocal images were taken by laser scanning confocal microscope 510 Meta (Zeiss) and analyzed by Zeiss LSM Image Browser (ver. 4.2.0.121). […] Quantification results are shown as mean ± S.D. or S.E.M. of three independent experiments

[1] = test system: AR^+LC3^+ autophagic membranes; assay: ICC of AR-LC3 co-localization in LNCaP cells; assay type: cell-based; settings: 2.5 µM, 24 h
Procedure: as §1

tauP301L, sequence (P10636 1-441 isoform P10636-8 P301L): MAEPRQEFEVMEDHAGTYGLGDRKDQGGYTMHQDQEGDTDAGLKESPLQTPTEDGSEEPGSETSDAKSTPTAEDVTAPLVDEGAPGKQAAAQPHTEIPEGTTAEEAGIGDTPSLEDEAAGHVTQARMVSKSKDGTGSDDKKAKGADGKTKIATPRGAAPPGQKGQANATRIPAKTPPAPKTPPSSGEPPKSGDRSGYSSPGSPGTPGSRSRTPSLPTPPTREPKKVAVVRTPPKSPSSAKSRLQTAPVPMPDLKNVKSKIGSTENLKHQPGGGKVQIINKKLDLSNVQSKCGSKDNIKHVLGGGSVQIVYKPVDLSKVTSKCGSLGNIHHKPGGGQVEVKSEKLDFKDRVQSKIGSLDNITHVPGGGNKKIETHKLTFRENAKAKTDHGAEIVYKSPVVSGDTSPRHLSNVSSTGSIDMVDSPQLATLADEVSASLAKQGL

| SMILES | binding of tauP301L in pulldown (tauP301L) | FK2 (Ub) / p62 colocalization, AVG of cells per 50 cells (Ub^+ and p62^+ puncta; no co-treatment (con)) | FK2 (Ub) / p62 colocalization, percentage AVG (Ub^+ and p62^+ puncta; no co-treatment (con)) [percentage] | FK2 (Ub) / p62 colocalization, cells counted per 50 cells (individual replicates) (Ub^+ and p62^+ puncta; no co-treatment (con), count out of 50 cells) | FK2 (Ub) / p62 colocalization, AVG of cells per 50 cells (Ub^+ and p62^+ puncta; with HCQ) | FK2 (Ub) / p62 colocalization, percentage AVG (Ub^+ and p62^+ puncta; with HCQ) [percentage] | FK2 (Ub) / p62 colocalization, cells counted per 50 cells (individual replicates) (Ub^+ and p62^+ puncta; with HCQ, count out of 50 cells) | FK2 (Ub) / p62 colocalization, AVG of cells per 50 cells (Ub^+ and p62^+ puncta; with MG132) | FK2 (Ub) / p62 colocalization, percentage AVG (Ub^+ and p62^+ puncta; with MG132) [percentage] | FK2 (Ub) / p62 colocalization, AVG of cells per 50 cells (Ub^+ and p62^+ puncta; with MG132+HCQ) | FK2 (Ub) / p62 colocalization, percentage AVG (Ub^+ and p62^+ puncta; with MG132+HCQ) [percentage] | FK2 (Ub) / p62 colocalization, cells counted per 50 cells (individual replicates) (Ub^+ and p62^+ puncta; with MG132+HCQ, count out of 50 cells) | FK2 (Ub) / p62 colocalization, cells counted per 50 cells (individual replicates) (Ub^+ and p62^+ puncta; with MG132, count out of 50 cells) | AR-LC3 colocalization, AVG of cells of 50 [1] | AR-LC3 colocalization, percentage AVG [1] [%] | AR-LC3 colocalization, cells of 50 cells counted ([1]; single experiments, listed as Vinclo.-2204) |
| --- | --- | --- | --- | --- | --- | --- | --- | --- | --- | --- | --- | --- | --- | --- | --- | --- |
| O=C(O)CCCc1ccccc1 [4-PBA, 4-phenylbutyric acid] | bound | 6.333 | 12.6667 | 7 and 9 and 3 | 19 | 38 | 25 and 15 and 17 | 24 | 48 | 35.3333 | 70.6667 | 32 and 39 and 35 | 13 and 33 and 26 | – | – | – |
| C=CC(C)(O)C(=O)N(C(=O)NCCOCCOCCNCC(O)COc1ccc(OCCc2ccccc2)c(OCCc2ccccc2)c1)c1cc(Cl)cc(Cl)c1 (stereo not shown) [VinclozolinM2-2204] | – | – | – | – | – | – | – | – | – | – | – | – | – | 40 | 80 | 41 and 36 and 43 |
